Data reported in the NIST ThermoML archive (doi:10.1021/acs.jced.8b00537).

Columns and labels:
[1] = 100 kPa, Liquid; for viscosity: Capillary tube (Ostwald / Ubbelohde) method; for speed of sound: Frequency=3 MHz, Single path-length method; for mass density: Vibrating tube method
[2] = xn = mol fraction of the nth substance listed; conditions: 100 kPa, Liquid, x2 = 0; for viscosity: Capillary tube (Ostwald / Ubbelohde) method; for speed of sound: Frequency=3 MHz, Single path-length method; for mass density: Vibrating tube method

O=S(=O)([N-]S(=O)(=O)C(F)(F)F)C(F)(F)F.On1cc[n+](O)c1 [1,3-dihydroxyimidazolium bis(trifluoromethylsulfonyl)imide]
[1]
Conditions | mass density [kg/m3] | speed of sound [m/s] | viscosity [mPa·s]
293.15 K | 1746.4 | 1208.2 | 238.6
298.15 K | 1740.44 | 1196.6 | 171.83
303.15 K | 1734.52 | 1185.2 | 127.52
308.15 K | 1728.64 | 1174.1 | 96.92
313.15 K | 1722.79 | 1163.1 | 75.56
318.15 K | 1716.97 | 1152.3 | 59.8
323.15 K | 1711.19 | 1141.6 | 48.29
328.15 K | 1705.44 | 1131.1 | 39.57
333.15 K | 1699.71 | 1120.7 | 32.88
338.15 K | 1694.01 | 1110.4 | 27.69
343.15 K | 1688.34 | 1100.2 | 23.59

CCCO [propan-1-ol]
[1]
Conditions | mass density [kg/m3] | speed of sound [m/s] | viscosity [mPa·s]
278.15 K | 815.52 | 1276 | –
283.15 K | 811.6 | 1258.7 | –
288.15 K | 807.63 | 1241.1 | –
293.15 K | 803.65 | 1223.8 | 2.14
298.15 K | 799.65 | 1206.5 | 1.897
303.15 K | 795.61 | 1189.4 | 1.688
308.15 K | 791.54 | 1172.4 | 1.506
313.15 K | 787.43 | 1155.5 | 1.348
318.15 K | 783.27 | 1138.7 | 1.211
323.15 K | 779.05 | 1121.9 | 1.09
328.15 K | 774.79 | 1105.2 | 0.985
333.15 K | 770.44 | 1088.3 | 0.892
338.15 K | 766.03 | 1071.5 | 0.81
343.15 K | 761.53 | 1054.5 | 0.737

CCCO [propan-1-ol] + CC[S+](CC)CC.O=S(=O)([N-]S(=O)(=O)C(F)(F)F)C(F)(F)F
[2]
Conditions | mass density [kg/m3] | speed of sound [m/s] | viscosity [mPa·s]
293.15 K | 804 | 1223.8 | 2.14
298.15 K | 800 | 1206.5 | 1.897
303.15 K | 796 | 1189.4 | 1.688
308.15 K | 792 | 1172.4 | 1.506
313.15 K | 787 | 1155.5 | 1.348
318.15 K | 783 | 1138.7 | 1.211
323.15 K | 779 | 1121.9 | 1.09
328.15 K | 775 | 1105.2 | 0.985
333.15 K | 770 | 1088.3 | 0.892
338.15 K | 766 | 1071.5 | 0.81
343.15 K | 762 | 1054.5 | 0.737

C=CCn1cc[n+](C)c1.O=S(=O)([N-]S(=O)(=O)C(F)(F)F)C(F)(F)F
[1]
Conditions | mass density [kg/m3] | speed of sound [m/s] | viscosity [mPa·s]
278.15 K | 1520.13 | 1286.6 | –
283.15 K | 1514.97 | 1274.9 | –
288.15 K | 1509.81 | 1263.1 | –
293.15 K | 1504.69 | 1251.6 | 41.83
298.15 K | – | 1240.2 | –
303.15 K | 1494.52 | 1228.9 | 28.51
308.15 K | 1489.48 | 1217.8 | 23.96
313.15 K | 1484.45 | 1206.8 | 20.41
318.15 K | 1479.44 | 1196 | 17.51
323.15 K | 1474.45 | 1185.2 | 15.19
328.15 K | 1469.5 | 1174.7 | 13.23
333.15 K | 1464.56 | 1164.2 | 11.62
338.15 K | 1459.65 | 1153.8 | 10.28
343.15 K | 1454.75 | 1143.5 | 9.125

CCCO [propan-1-ol] + C=CCn1cc[n+](C)c1.O=S(=O)([N-]S(=O)(=O)C(F)(F)F)C(F)(F)F
[2]
Conditions | mass density [kg/m3] | speed of sound [m/s] | viscosity [mPa·s]
293.15 K | 804 | 1223.8 | 2.14
298.15 K | – | 1206.5 | –
303.15 K | 796 | 1189.4 | 1.688
308.15 K | 792 | 1172.4 | 1.506
313.15 K | 787 | 1155.5 | 1.348
318.15 K | 783 | 1138.7 | 1.211
323.15 K | 779 | 1121.9 | 1.09
328.15 K | 775 | 1105.2 | 0.985
333.15 K | 770 | 1088.3 | 0.892
338.15 K | 766 | 1071.5 | 0.81
343.15 K | 762 | 1054.5 | 0.737

CCCO [propan-1-ol] + O=S(=O)([N-]S(=O)(=O)C(F)(F)F)C(F)(F)F.On1cc[n+](O)c1
[2]
Conditions | mass density [kg/m3] | speed of sound [m/s] | viscosity [mPa·s]
293.15 K | 804 | 1223.8 | 2.14
298.15 K | 800 | 1206.5 | 1.897
303.15 K | 796 | 1189.4 | 1.688
308.15 K | 792 | 1172.4 | 1.506
313.15 K | 787 | 1155.5 | 1.348
318.15 K | 783 | 1138.7 | 1.211
323.15 K | 779 | 1121.9 | 1.09
328.15 K | 775 | 1105.2 | 0.985
333.15 K | 770 | 1088.3 | 0.892
338.15 K | 766 | 1071.5 | 0.81
343.15 K | 762 | 1054.5 | 0.737

CC[S+](CC)CC.O=S(=O)([N-]S(=O)(=O)C(F)(F)F)C(F)(F)F [triethylsulfonium bis((trifluoromethyl)sulfonyl)imide]
[1]
Conditions | mass density [kg/m3] | speed of sound [m/s] | viscosity [mPa·s]
278.15 K | 1479.52 | 1284.8 | –
283.15 K | 1474.62 | 1274.1 | –
288.15 K | 1469.71 | 1263.3 | –
293.15 K | 1464.83 | 1252.9 | 39.64
298.15 K | 1459.98 | 1242.5 | 32.43
303.15 K | 1455.14 | 1232.4 | 26.92
308.15 K | 1450.33 | 1222.4 | 22.64
313.15 K | 1445.52 | 1212.7 | 19.24
318.15 K | 1440.74 | 1203.1 | 16.53
323.15 K | 1435.99 | 1193.7 | 14.31
328.15 K | 1431.27 | 1184.7 | 12.5
333.15 K | 1426.57 | 1175.9 | 10.99
338.15 K | 1421.87 | 1166.8 | 9.726
343.15 K | 1417.19 | 1157.6 | 8.659

CCCC[N+]1(C)CCCC1.O=S(=O)([N-]S(=O)(=O)C(F)(F)F)C(F)(F)F
[1]
Conditions | mass density [kg/m3] | speed of sound [m/s] | viscosity [mPa·s]
278.15 K | 1412.33 | 1316.3 | –
283.15 K | 1407.79 | 1304.4 | –
288.15 K | 1403.28 | 1292.5 | –
293.15 K | 1398.78 | 1280.8 | 97.14
298.15 K | 1394.32 | 1269.4 | 76.54
303.15 K | 1389.87 | 1258.2 | 61.31
308.15 K | 1385.44 | 1247.1 | 49.84
313.15 K | 1381.05 | 1236.1 | 41.08
318.15 K | 1376.66 | 1225.3 | 34.3
323.15 K | 1372.3 | 1214.6 | 28.98
328.15 K | 1367.94 | 1204.1 | 24.76
333.15 K | 1363.6 | 1193.6 | 20.74
338.15 K | 1359.28 | 1183.2 | 18.03
343.15 K | 1354.98 | 1173 | 15.8
